Results taken from ChEMBL document CHEMBL5096191 (J Med Chem, 2021).

Columns and labels:
Type in all cases: functional, cell-based
[1] = tested on: Cannabinoid receptor 2 (Homo sapiens), P34972 [S285L]; assay: Partial agonist activity at CBR2 S2857.39L mutant (unknown origin) stably expressed in HEK293T assessed as decrease in forskolin induced cAMP level preincubated for 15 mins followed by forskolin addition incubated for 15 mins by HTRF assay relative to control; details: filed as partial agonist, time 30.0 min
Cannabinoid receptor 2 (Homo sapiens), P34972 [S285L], sequence (P34972 whole entry S285L): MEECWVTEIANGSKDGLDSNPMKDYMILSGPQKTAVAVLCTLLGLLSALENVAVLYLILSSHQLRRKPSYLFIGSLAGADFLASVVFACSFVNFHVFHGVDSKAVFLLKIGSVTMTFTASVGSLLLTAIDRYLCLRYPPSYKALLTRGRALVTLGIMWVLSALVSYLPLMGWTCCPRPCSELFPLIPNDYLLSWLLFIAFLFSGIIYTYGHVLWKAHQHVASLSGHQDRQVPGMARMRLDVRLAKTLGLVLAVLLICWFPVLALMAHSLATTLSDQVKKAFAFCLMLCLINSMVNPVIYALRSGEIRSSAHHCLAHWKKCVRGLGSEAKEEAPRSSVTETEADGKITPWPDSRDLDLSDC

[2] = tested on: Cannabinoid receptor 2 (Homo sapiens), P34972 [A282M]; assay: Partial agonist activity at CBR2 A2827.36M mutant (unknown origin) stably expressed in HEK293T assessed as decrease in forskolin induced cAMP level preincubated for 15 mins followed by forskolin addition incubated for 15 mins by HTRF assay relative to control; details: filed as partial agonist, time 30.0 min
Cannabinoid receptor 2 (Homo sapiens), P34972 [A282M], sequence (P34972 whole entry A282M): as the sequence (P34972 whole entry S285L) above, with A282M, L285S counted along it

[3] = tested on: Cannabinoid receptor 2 (Homo sapiens), P34972 [V113M]; assay: Partial agonist activity at CBR2 V1133.32M mutant (unknown origin) stably expressed in HEK293T assessed as decrease in forskolin induced cAMP level preincubated for 15 mins followed by forskolin addition incubated for 15 mins in presence of cannabidiol by HTRF assay relative to control; details: filed as partial agonist, time 30.0 min
Cannabinoid receptor 2 (Homo sapiens), P34972 [V113M], sequence (P34972 whole entry V113M): as the sequence (P34972 whole entry S285L) above, with V113M, L285S counted along it

Cannabinoid receptor 2 [4] = target: T1, Cannabinoid receptor 2 (Homo sapiens, UniProt P34972, V113M); assay: Partial agonist activity at CBR2 V1133.32M mutant (unknown origin) expressed in HEK293T assessed as increase in ERK1/2 phosphorylation incubated for 7 mins in presence of cannabidiol by AlphaScreenSureFire method
T1 sequence (P34972 whole entry V113M): as the sequence (P34972 whole entry S285L) above, with V113M, L285S counted along it

Cannabinoid receptor 2 [5] = target: T2, Cannabinoid receptor 2 (Homo sapiens, UniProt P34972, V36M); assay: Partial agonist activity at CBR2 V361.35M mutant (unknown origin) stably expressed in HEK293T assessed as decrease in forskolin induced cAMP level preincubated for 15 mins followed by forskolin addition incubated for 15 mins by HTRF assay
T2 sequence (P34972 whole entry V36M): as the sequence (P34972 whole entry S285L) above, with V36M, L285S counted along it

Cannabinoid receptor 2 [6] = target: T3, Cannabinoid receptor 2 (Homo sapiens, UniProt P34972); assay: Partial agonist activity at wild type CB2 receptor (unknown origin) expressed in HEK293T assessed as increase in picometer shifts of reflected light wavelengths by DMR assay relative to control; details: filed as partial agonist
T3 sequence (P34972 whole entry): as the sequence (P34972 whole entry S285L) above, with L285S counted along it

Cannabinoid receptor 2 [7] = target: T1, Cannabinoid receptor 2; assay: Partial agonist activity at CBR2 V1133.32M mutant (unknown origin) expressed in HEK293T assessed as increase in ERK1/2 phosphorylation incubated for 7 mins by AlphaScreenSureFire method
[8] = tested on: Cannabinoid receptor 2 (Homo sapiens), P34972 [V36M]; assay: Partial agonist activity at CBR2 V361.35M mutant (unknown origin) expressed in HEK293T assessed as increase in ERK1/2 phosphorylation incubated for 7 mins by AlphaScreenSureFire method relative to control; details: filed as partial agonist
Cannabinoid receptor 2 (Homo sapiens), P34972 [V36M], sequence (P34972 whole entry V36M): as the sequence (P34972 whole entry S285L) above, with V36M, L285S counted along it

[9] = tested on: Cannabinoid receptor 2 (Homo sapiens), P34972 [V113M]; assay: Partial agonist activity at CBR2 V1133.32M mutant (unknown origin) expressed in HEK293T assessed as increase in ERK1/2 phosphorylation incubated for 7 mins by AlphaScreenSureFire method relative to control; details: filed as partial agonist
[10] = tested on: Cannabinoid receptor 2 (Homo sapiens), P34972 [V36M]; assay: Partial agonist activity at CBR2 V361.35M mutant (unknown origin) expressed in HEK293T assessed as increase in ERK1/2 phosphorylation incubated for 7 mins in presence of cannabidiol by AlphaScreenSureFire method relative to control; details: filed as partial agonist
[11] = tested on: Cannabinoid receptor 2 (Homo sapiens), P34972 [S285L]; assay: Partial agonist activity at CBR2 S2857.39L mutant (unknown origin) stably expressed in HEK293T assessed as decrease in forskolin induced cAMP level preincubated for 15 mins followed by forskolin addition incubated for 15 mins in presence of cannabidiol by HTRF assay relative to control; details: filed as partial agonist, time 30.0 min
Cannabinoid receptor 2 [12] = target: T1, Cannabinoid receptor 2; assay: Partial agonist activity at CBR2 V1133.32M mutant (unknown origin) stably expressed in HEK293T assessed as decrease in forskolin induced cAMP level preincubated for 15 mins followed by forskolin addition incubated for 15 mins by HTRF assay
[13] = tested on: Cannabinoid receptor 2 (Homo sapiens), P34972 [S285L]; assay: Partial agonist activity at CBR2 S2857.39L mutant (unknown origin) expressed in HEK293T assessed as increase in ERK1/2 phosphorylation incubated for 7 mins in presence of cannabidiol by AlphaScreenSureFire method relative to control; details: filed as partial agonist
Cannabinoid receptor 2 [14] = target: T1, Cannabinoid receptor 2; assay: Partial agonist activity at CBR2 V1133.32M mutant (unknown origin) expressed in HEK293T assessed as increase in picometer shifts of reflected light wavelengths by DMR assay
Cannabinoid receptor 2 [15] = target: T2, Cannabinoid receptor 2; assay: Partial agonist activity at CBR2 V361.35M mutant (unknown origin) expressed in HEK293T assessed as increase in picometer shifts of reflected light wavelengths in presence of cannabidiol by DMR assay
Cannabinoid receptor 2 [16] = target: T3, Cannabinoid receptor 2; assay: Partial agonist activity at wild type CB2 receptor (unknown origin) stably expressed in HEK293T assessed as decrease in forskolin induced cAMP level preincubated for 15 mins followed by forskolin addition incubated for 15 mins by HTRF assay relative to control; details: filed as partial agonist, time 30.0 min
Cannabinoid receptor 2 [17] = target: T3, Cannabinoid receptor 2; assay: Partial agonist activity at wild type CB2 receptor (unknown origin) stably expressed in HEK293T assessed as decrease in forskolin induced cAMP level preincubated for 15 mins followed by forskolin addition incubated for 15 mins in presence of cannabidiol by HTRF assay
Cannabinoid receptor 2 [18] = target: T3, Cannabinoid receptor 2; assay: Partial agonist activity at wild type CB2 receptor (unknown origin) expressed in HEK293T assessed as increase in picometer shifts of reflected light wavelengths in presence of cannabidiol by DMR assay relative to control; details: filed as partial agonist
Cannabinoid receptor 2 [19] = target: T2, Cannabinoid receptor 2; assay: Partial agonist activity at CBR2 V361.35M mutant (unknown origin) expressed in HEK293T assessed as increase in picometer shifts of reflected light wavelengths by DMR assay
Cannabinoid receptor 2 [20] = target: T1, Cannabinoid receptor 2; assay: Partial agonist activity at CBR2 V1133.32M mutant (unknown origin) stably expressed in HEK293T assessed as decrease in forskolin induced cAMP level preincubated for 15 mins followed by forskolin addition incubated for 15 mins in presence of cannabidiol by HTRF assay
Cannabinoid receptor 2 [21] = target: T4, Cannabinoid receptor 2 (Homo sapiens, UniProt P34972, A282M); assay: Partial agonist activity at CBR2 A2827.36M mutant (unknown origin) stably expressed in HEK293T assessed as decrease in forskolin induced cAMP level preincubated for 15 mins followed by forskolin addition incubated for 15 mins by HTRF assay
T4 sequence (P34972 whole entry A282M): as the sequence (P34972 whole entry S285L) above, with A282M, L285S counted along it

[22] = tested on: Cannabinoid receptor 2 (Homo sapiens), P34972 [V36M]; assay: Partial agonist activity at CBR2 V361.35M mutant (unknown origin) stably expressed in HEK293T assessed as decrease in forskolin induced cAMP level preincubated for 15 mins followed by forskolin addition incubated for 15 mins in presence of cannabidiol by HTRF assay relative to control; details: filed as partial agonist, time 30.0 min
[23] = tested on: Cannabinoid receptor 2 (Homo sapiens), P34972 [V36M]; assay: Partial agonist activity at CBR2 V361.35M mutant (unknown origin) expressed in HEK293T assessed as increase in picometer shifts of reflected light wavelengths in presence of cannabidiol by DMR assay relative to control; details: filed as partial agonist
[24] = tested on: Cannabinoid receptor 2 (Homo sapiens), P34972 [V113M]; assay: Partial agonist activity at CBR2 V1133.32M mutant (unknown origin) expressed in HEK293T assessed as increase in picometer shifts of reflected light wavelengths by DMR assay relative to control; details: filed as partial agonist
Cannabinoid receptor 2 [25] = target: T1, Cannabinoid receptor 2; assay: Partial agonist activity at CBR2 V1133.32M mutant (unknown origin) expressed in HEK293T assessed as increase in picometer shifts of reflected light wavelengths in presence of cannabidiol by DMR assay
Cannabinoid receptor 2 [26] = target: T4, Cannabinoid receptor 2; assay: Partial agonist activity at CBR2 A2827.36M mutant (unknown origin) expressed in HEK293T assessed as increase in ERK1/2 phosphorylation incubated for 7 mins by AlphaScreenSureFire method

CCCC(C)(C)c1cc(O)c2c(c1)OC(C)(C)[C@@H]1CC=C(C)C[C@@H]21
Emax [1]: 49.3% | Emax [2]: 45.4% | Emax [3]: 77.8% | EC50 (Cannabinoid receptor 2 [4]): 0.0398 µM | EC50 (Cannabinoid receptor 2 [5]): 0.0126 µM | Emax (Cannabinoid receptor 2 [6]): 183% | EC50 (Cannabinoid receptor 2 [7]): 0.02 µM | Emax [8]: 363% | Emax [9]: 276% | Emax [10]: 353% | Emax [11]: 57.4% | EC50 (Cannabinoid receptor 2 [12]): 0.02 µM | Emax [13]: 291% | EC50 (Cannabinoid receptor 2 [14]): 0.501 µM | EC50 (Cannabinoid receptor 2 [15]): 0.631 µM | Emax (Cannabinoid receptor 2 [16]): 46% | EC50 (Cannabinoid receptor 2 [17]): 0.0501 µM | Emax (Cannabinoid receptor 2 [18]): 117% | EC50 (Cannabinoid receptor 2 [19]): 0.631 µM | EC50 (Cannabinoid receptor 2 [20]): 0.0251 µM | EC50 (Cannabinoid receptor 2 [21]): 0.0126 µM | Emax [22]: 53% | Emax [23]: 200% | Emax [24]: 79.9% | EC50 (Cannabinoid receptor 2 [25]): 0.398 µM | EC50 (Cannabinoid receptor 2 [26]): 0.02 µM
